The text below walks through data of patent publication US12319710B2, “Catecholamine prodrugs for use in the treatment of Parkinson's diseases” (H. Lundbeck A/S, priority 2019, dated 2025).

Structures are written as SMILES.

Data set [1] in a line: PK experiments in rats: plasma compound (I) after oral dosing of prodrug. The data set is classed as in vivo, Wistar rats. To be noted: Wistar rats, oral. As for the experimental part:
Plasma was placed on water-ice following collection. Final storage at approximately −70° C.
Mobile phase B: Acetonitrile. […] Flow rate 0.5 mL/min.
The rats had unrestricted access to the diet.
Mobile phase B: Acetonitrile+0.2% formic acid. […] Flow rate 0.3 mL/min.
Dosing and blood sampling: Han Wistar rats were supplied by Envigo, UK. […] The rats received a standard laboratory diet Teklad 2014C. The rats had unrestricted access to the diet. […] Rats were given […] (Ic), 487 ag/kg compound (7), 487 ag/kg Compound (4), 674 ag/kg compound (9), 359 ag/kg A6 and 551 ag/kg A2.

Another data set deals with T1, human 5-HT2B receptor (Homo sapiens, UniProt P41595).
T1 construct: host or cells: CHO cells (membrane homogenates)
Description: 5-HT2B agonist activity assay (IP1 production, HTRF, transfected CHO cells). The data set is classed as cell-based. The method, then: Evaluation of the agonist activity of compounds (I), (Ia) and (Ib) at the human 5-HT2B receptor was performed by Eurofins/Cerep (France) measuring the compound effects on inositol monophosphate (IP1) production using the HTRF detection method. Briefly, the human 5-HT2B receptor was expressed in transfected CHO cells. The cells were suspended in a buffer containing 10 mM Hepes/NaOH (pH 7.4), 4.2 mM KCl, 146 mM NaCl, 1 mM CaCl2, 0.5 mM MgCl2, 5.5 mM glucose and 50 mM LiCl, then distributed in microplates at a density of 4100 cells/well and incubated for 30 minutes at 37° C. in the presence of buffer (basal control), test compound or reference agonist. For stimulated control measurement, separate assay wells contained 1 μM 5-HT. Following incubation, the cells were lysed and the fluorescence acceptor (fluorophen D2-labeled IP1) and fluorescence donor (anti-IP1 antibody labeled with europium cryptate) were added. After 60 minutes at room temperature, the fluorescence transfer was measured at lambda(Ex) 337 nm and lambda(Em) 620 and 665 nm using a microplate reader (Rubystar, BMG). The IP1 concentration was determined by dividing the signal measured at 665 nm by that measured at 620 nm (ratio). The results were expressed as a percent of the control response to 1 μM 5-HT. […]
For orientation: TR-FRET usually uses a lanthanide donor and a delayed reading to cut background.

The conditions of data set [2]: man, oral dosing; cited from earlier work.

T1 sequence (P41595 whole entry): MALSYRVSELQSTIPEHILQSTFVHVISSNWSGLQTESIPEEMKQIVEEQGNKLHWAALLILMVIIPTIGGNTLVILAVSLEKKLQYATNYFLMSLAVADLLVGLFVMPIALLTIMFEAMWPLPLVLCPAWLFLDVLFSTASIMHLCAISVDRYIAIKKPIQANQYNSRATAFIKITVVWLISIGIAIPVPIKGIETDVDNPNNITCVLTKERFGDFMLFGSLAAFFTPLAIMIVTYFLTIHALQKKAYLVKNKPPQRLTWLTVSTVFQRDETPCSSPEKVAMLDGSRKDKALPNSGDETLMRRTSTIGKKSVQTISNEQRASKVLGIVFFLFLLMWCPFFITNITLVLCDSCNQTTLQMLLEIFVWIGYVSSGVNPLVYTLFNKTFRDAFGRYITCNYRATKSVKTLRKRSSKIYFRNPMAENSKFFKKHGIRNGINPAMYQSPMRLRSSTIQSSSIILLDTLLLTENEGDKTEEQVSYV

`CCCN1CCC[C@@H]2CC3=C(CCCC3=O)C[C@H]21` [(Ia), reference compound]: the “plasma concentrations of compound (I) after oral dosing (in words)” value in data set [1] was “early and high peak plasma concentrations of compound (I)”. Further, at human 5-HT2B receptor (30 uM, percent of control response to 1 μM 5-HT), the “5-HT2B % @ 30 uM” value was 58%.

For the compound `CCCN1CCC[C@@H]2Cc3c(ccc4c3OCO4)C[C@H]21` [(Ib), (6aR,10aR)-7-propyl-6,6a,7,8,9,10,10a,11-octahydro-[1,3]dioxolo[4′,5′:5,6]benzo[1,2-g]quinoline, reference compound], the “plasma concentrations of compound (I) after oral dosing (in words)” value in data set [1] was “early and high peak plasma concentrations of compound (I)”. Moreover, the “5-HT2B receptor agonism (in words)” value at human 5-HT2B receptor was “agonist of the 5-HT2B receptor”.

In the case of `CCCc1cc2c(s1)CN[C@@H]1CCc3cc(OC(C)=O)c(OC(C)=O)cc3[C@@H]21` [Adrogolide], the oral bioavailability in data set [2] is about 4%.
